Reference: PMC4519324, “Substrate Specificity, Inhibitor Selectivity and Structure-Function Relationships of Aldo-Keto Reductase 1B15: A Novel Human Retinaldehyde Reductase” (PLoS ONE, 2015)
Read-outs that look alike come from different tables or passages of the source. Each block holds one molecule with its values, some of them ahead of it.

Tests used:
AKR1B10 [1] = target: T1, AKR1B10 (Homo sapiens, UniProt O60218); settings: cited from earlier work
T1 construct: made in house

AKR1B15 [2] = target: T2, AKR1B15 (Homo sapiens, UniProt C9JRZ8); assay: Inhibition screening with D,L-glyceraldehyde as substrate; assay type: biochemical; settings: 6 mM D,L-glyceraldehyde as substrate, 0.1% DMSO
T2 construct: made in house; host or cells: E. coli BL21(DE3), with or without chaperone plasmids pBB540/pBB542
T2 sequence (C9JRZ8 whole entry): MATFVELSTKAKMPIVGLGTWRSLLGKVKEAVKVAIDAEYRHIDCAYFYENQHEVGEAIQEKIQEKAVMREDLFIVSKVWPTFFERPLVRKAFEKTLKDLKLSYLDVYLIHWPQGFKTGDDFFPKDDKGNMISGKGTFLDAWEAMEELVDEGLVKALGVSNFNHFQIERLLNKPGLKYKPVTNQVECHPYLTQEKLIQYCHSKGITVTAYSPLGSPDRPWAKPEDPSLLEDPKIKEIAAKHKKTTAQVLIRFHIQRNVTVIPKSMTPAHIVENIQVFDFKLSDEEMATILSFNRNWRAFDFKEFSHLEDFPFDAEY
Protocol: (§1) Activities were determined in 100 mM sodium phosphate, pH 7.0, at 25°C, using 0.2 mM NADPH in 0.2-cm path length cuvettes, with freshly prepared substrate solutions. One unit of activity is defined as the amount of enzyme required to transform 1 μmol of substrate per min at 25°C.
(§2) All compounds tested as inhibitors were dissolved in DMSO and assayed in a final concentration of 0.1% (v/v) DMSO using 6 mM D,L-glyceraldehyde as a substrate. Kinetic constant and IC50 (compound concentration that inhibits enzymatic activity by 50%) values were calculated by fitting the initial rates to the appropriate equation using Grafit 5.0 (Eritacus Software) and values were given as the mean ± standard error of three experiments. Standard error values were less than 20% of the mean values.

AKR1B1 [3] = target: T3, AKR1B1 (Homo sapiens, UniProt P15121); settings: cited from earlier work
T3 construct: made in house

AKR1B15 [4] = target: T2, AKR1B15; assay: Spectrophotometric activity assay (NADPH decrease at 340 nm), substrate kinetics; assay type: biochemical; settings: for Km / k cat: substrate, spectrophotometric, 0.2 mM NADPH; for Km: 100 mM sodium phosphate pH 7.0, 25°C, <1 values only approximate, read-out: Km; for k cat: pH 7.0, 25°C
AKR1B1 [5] = target: T3, AKR1B1; settings: substrate, cited from earlier work; for Km: read-out: Km
AKR1B10 [6] = target: T1, AKR1B10; settings: substrate; cited from earlier work
CC(=O)CC(C)=O = assay: Spectrophotometric activity assay (NADPH decrease at 340 nm), substrate kinetics; assay type: biochemical, human; settings: other: AKR1B1, pH 7.0, 25.0 °C
Protocol: as §1, §2

CCC(=O)CC(=O)CC = assay: as above; assay type: biochemical, human; settings: other: AKR1B1, pH 7.0, 25.0 °C
Protocol: as §1, §2

CC(C)=CCC/C(C)=C/C=O = assay: as above; assay type: biochemical, human; settings: other: AKR1B1, pH 7.0, 25.0 °C
Protocol: as §1, §2

AKR1B10 [7] = target: T1, AKR1B10; assay: as above; assay type: biochemical; settings: for k cat / Km: substrate, spectrophotometric; for Km: read-out: Km; for activity class: at saturating concentration of substrate for AKR1B15
AKR1B10 [8] = target: T1, AKR1B10; set-up: method as in PMID 18087047; settings: HPLC-based method; cited from earlier work
AKR1B15 [9] = target: T2, AKR1B15; assay: HPLC enzymatic activity assay with retinaldehyde isomers; assay type: biochemical; settings: HPLC-based method, 37°C
Protocol: Activity assays with retinoids were carried out using an HPLC-based methodology. Briefly, retinaldehyde isomers were solubilized using glass tubes by a 10-min sonication at molar ratio 1:1 with fatty acid-free bovine serum albumin in 90 mM potassium phosphate, 40 mM potassium chloride, pH 7.4. The actual amount of solubilized retinoid was determined based on the corresponding molar absorption coefficient in aqueous solutions at the appropriate wavelength: ε400 = 29,500 M^−1·cm^−1 for all-trans-retinaldehyde and ε367 = 26,700 M^−1·cm^−1 for 9-cis-retinaldehyde. For retinol isomers, which were used as standards of the reaction product, their concentration was determined in hexane using ε325 = 51,770 M^−1·cm^−1 for all-trans-retinol and ε325 = 43,765 M^−1·cm^−1 for 9-cis-retinol. The reactions were started by the addition of cofactor and carried out for 15 min at 37°C in a final volume of 0.5 mL. With the aim to measure the steady-state enzymatic activity, the concentration of enzyme was kept from 25- to 100-fold lower than that of the substrate for all the enzymatic assays. The reactions were stopped by the addition of 1 mL of cold methanol and after two rounds of extraction with hexane, retinoids were analyzed by HPLC as previously described. All retinoid manipulations were performed under dim light.
as §2

AKR1B1 [10] = target: T3, AKR1B1; set-up: method as in PMID 18087047; settings: HPLC-based method; cited from earlier work
AKR1B1 [11] = target: T3, AKR1B1; assay: Spectrophotometric activity assay (NADPH decrease at 340 nm), substrate kinetics; assay type: biochemical; settings: for activity class: at saturating concentration of substrate for AKR1B15
Protocol: as §1, §2

T1 sequence (O60218 whole entry): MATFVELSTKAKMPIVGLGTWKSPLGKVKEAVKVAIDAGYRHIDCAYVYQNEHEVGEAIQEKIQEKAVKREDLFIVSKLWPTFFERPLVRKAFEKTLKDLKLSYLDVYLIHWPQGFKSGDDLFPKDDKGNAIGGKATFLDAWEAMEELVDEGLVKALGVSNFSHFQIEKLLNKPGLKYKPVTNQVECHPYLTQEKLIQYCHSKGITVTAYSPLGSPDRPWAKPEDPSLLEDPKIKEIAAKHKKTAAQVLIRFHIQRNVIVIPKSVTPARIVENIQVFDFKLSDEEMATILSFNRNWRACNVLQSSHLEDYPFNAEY

Molecule: C[C@H](CCC(=O)O)[C@H]1CC[C@H]2[C@@H]3CC[C@@H]4C[C@H](O)CC[C@]4(C)[C@H]3CC[C@]12C [Lithocholic acid]
IC50 (AKR1B10 [1]; AKR1B10): 0.12 µM
selectivity between AKR1B10 and AKR1B1 (AKR1B10 [1]; in words): more selective against AKR1B10
IC50 (AKR1B15 [2]): 16.3 ± 7.6 µM
IC50 (AKR1B1 [3]; AKR1B1): 7.2 µM

Km (AKR1B15 [4]): 5 µM
k cat (AKR1B15 [4]): 0.188 s⁻¹
Molecule: CCC/C=C/C=O [trans-2-hexenal]
Km (AKR1B1 [5]): 9 µM
k cat (min^−1) (AKR1B1 [5]): 16 ^b min^−1
Km (AKR1B10 [6]): 28 µM
k cat (min^−1) (AKR1B10 [6]): 49 ^b min^−1

Molecule: AKR1B1 (Homo sapiens)
Km (CC(=O)CC(C)=O): 8,100 μM
kcat (CC(=O)CC(C)=O): 0.278 s⁻¹
kcat/Km (CC(=O)CC(C)=O): 36.7 M⁻¹ s⁻¹
Km (CCC(=O)CC(=O)CC): 12,000 μM
kcat (CCC(=O)CC(=O)CC): 0.433 s⁻¹
kcat/Km (CCC(=O)CC(=O)CC): 36.7 M⁻¹ s⁻¹
Km (CC(C)=CCC/C(C)=C/C=O): 35 µM
kcat (CC(C)=CCC/C(C)=C/C=O): 1.13 s⁻¹
kcat/Km (CC(C)=CCC/C(C)=C/C=O): 29200 M⁻¹ s⁻¹

Km (AKR1B15 [4]): 40 µM
k cat (AKR1B15 [4]): 0.0367 s⁻¹
k cat (AKR1B10 [7]): 0.143 s⁻¹
Km (AKR1B10 [7]): 58900 µM
Molecule: CC(=O)CC(C)=O [2,4-pentanedione]

IC50 (AKR1B15 [2]): 0.034 ± 0.005 µM
Molecule: Oc1c(F)c(F)c(-c2c(F)c(F)c(O)c(F)c2F)c(F)c1F [JF0064, 2,2’,3,3’,5,5’,6,6’-octafluoro-4,4’-biphenyldiol]
IC50 (AKR1B10 [1]; AKR1B10, values in Table 3): < 10 µM
IC50 (AKR1B1 [3]; AKR1B1, values in Table 3): < 10 µM

k cat (AKR1B15 [9]; pH 7.4): 0.09 ± 0.0083 s⁻¹
Km (AKR1B15 [9]; pH 7.4, read-out: Km): 1 ± 0.3 µM
Molecule: CC1=C(/C=C/C(C)=C/C=C/C(C)=C/C=O)C(C)(C)CCC1 [All-trans-retinaldehyde]
Km (AKR1B10 [8]): 0.6 ± 0.1 µM
k cat (AKR1B10 [8]): 0.45 ± 0.017 s⁻¹
Km (AKR1B1 [10]): 1.1 ± 0.1 µM
k cat (AKR1B1 [10]): 0.015 ± 0.0017 s⁻¹

IC50 (AKR1B15 [2]): > 100 µM
Molecule: CC1(C)CC[C@]2(C(=O)O)CC[C@]3(C)C(=CC[C@@H]4[C@@]5(C)CC[C@H](O)C(C)(C)[C@@H]5CC[C@]43C)[C@@H]2C1 [Oleanolic acid]

Molecule: C=CC(C)=O [3-buten-2-one]
Km (AKR1B15 [4]): 21.3 µM
k cat (AKR1B15 [4]): 0.137 s⁻¹
activity class (AKR1B10 [7]): LA (LA, low activity (≤ 10 mU/mg) was detected at saturating concentration of substrate for AKR1B15)
activity class (AKR1B1 [11]): LA (LA, low activity (≤ 10 mU/mg) was detected at saturating concentration of substrate for AKR1B15)

rate of reduction (AKR1B15 [4]; 200 mM glucose): 12 mU/mg
rate of reduction (AKR1B1 [11]; 200 mM glucose): 500 mU/mg
Molecule: OC[C@H]1OC(O)[C@H](O)[C@@H](O)[C@@H]1O (stereo partly drawn) [glucose]

Molecule: CCC(C)=O [2-butanone]
Km (AKR1B15 [4]): 780 µM
k cat (AKR1B15 [4]): 0.175 s⁻¹
activity class (AKR1B10 [7]): LA (LA, low activity (≤ 10 mU/mg) was detected at saturating concentration of substrate for AKR1B15)
activity class (AKR1B1 [11]): LA (LA, low activity (≤ 10 mU/mg) was detected at saturating concentration of substrate for AKR1B15)

Km (AKR1B15 [4]): 1.7 µM
k cat (AKR1B15 [4]): 0.113 s⁻¹
Molecule: CCCCCC=CC(C)=O [3-nonen-2-one]
activity class (AKR1B10 [7]): LA (LA, low activity (≤ 10 mU/mg) was detected at saturating concentration of substrate for AKR1B15)
activity class (AKR1B1 [11]): LA (LA, low activity (≤ 10 mU/mg) was detected at saturating concentration of substrate for AKR1B15)

Km (AKR1B15 [4]): < 1 µM
k cat (AKR1B15 [4]): 0.158 s⁻¹
Molecule: CCCC(=O)C(C)=O [2,3-hexanedione]
Km (AKR1B1 [5]): 17 µM
k cat (min^−1) (AKR1B1 [5]): 49 ^b min^−1
Km (AKR1B10 [6]): 51 µM
k cat (min^−1) (AKR1B10 [6]): 79 ^b min^−1

Molecule: CC(C)=CCCC(C)=CC=O (mixture of isomers) [citral]
Km (AKR1B15 [4]): 1.5 µM
k cat (AKR1B15 [4]): 0.0917 s⁻¹
k cat (AKR1B10 [7]): 0.583 s⁻¹
Km (AKR1B10 [7]): 4.5 µM

IC50 (AKR1B15 [2]): > 100 µM
Molecule: CC1=C(CC(=O)O)c2cc(F)ccc2/C1=C\c1ccc([S+](C)[O-])cc1 (stereo not drawn) [Sulindac]
IC50 (AKR1B10 [1]; AKR1B10, values in Table 3): < 10 µM
IC50 (AKR1B1 [3]; AKR1B1, values in Table 3): < 10 µM

Molecule: O=C/C=C/c1ccccc1 [cinnamaldehyde]
Km (AKR1B15 [4]): < 1 µM
k cat (AKR1B15 [4]): 0.222 s⁻¹
k cat (AKR1B10 [7]): 4 s⁻¹
Km (AKR1B10 [7]): 34.7 µM
Km (AKR1B1 [11]; substrate, spectrophotometric): 31 µM
k cat (AKR1B1 [11]; substrate, spectrophotometric): 0.483 s⁻¹
